From patent publication US11253516B2, “N2,N4-diphenylpyrimidine-2,4-diamine derivative, method for preparing same, and pharmaceutical composition containing same as active ingredient for prevention or treatment of cancer” (Korea Research Institute of Chemical Technology, priority 2017, dated 2022)
Where two headings read alike, the source gives them in different places.

Legend:
Ba/F3 EGFR wt. cell line = assay: CellTiter-Glo cell viability, Ba/F3 EGFR wild-type; format: cell-based; settings: 72 hours
Experimental: (§1) The measurement of an activity on wild-type and mutation Ba/F3 EGFR cell line of the compound of the present invention was experimented by utilizing the CellTiter-Glo system sold by Promega, as follow. The CellTiter-Glo assay is a method for measuring the ATP present in cells in cell culture conditions to determine the cell viability.
(§2) The analysis of an EGFR inhibitory ability effect of the compound was carried out in accordance with the analysis reaction recipe below.
(§3) After the reaction of 72 hours, the plate treated with the compound was allowed to stand for 30 minutes at ambient temperature, and then, was further treated with 100 μl of the reagent, and was shaked for 10 minutes at ambient temperature. […] The measurement values measured at the eight concentrations of the compound were analyzed by using the Prism program (version 5.01, Graphpad Software, Inc.), and IC50 value of the compound was calculated, which is an inhibitory ability indicator.

[1] = test system: Ba/F3 EGFR del19 cell line; assay: CellTiter-Glo cell viability, Ba/F3 EGFR del19; format: cell-based; settings: 72 hours
Experimental: as §1, §2, §3

[2] = test system: Ba/F3 EGFR del19/T790M cell line; assay: CellTiter-Glo cell viability, Ba/F3 EGFR del19/T790M; format: cell-based; settings: read-out: Ba/F3 EGFR del19/T790M IC50
Experimental: as §1, §2
(§4) After the reaction of 72 hours, the plate treated with the compound was allowed to stand for 30 minutes at ambient temperature, and then, was further treated with 100 μl of the reagent, and was shaked for 10 minutes at ambient temperature.

EGFR wt. = EGFR wt. (Homo sapiens (Human), UniProt P00533); assay: HTRF enzyme assay, wild-type EGFR; format: biochemical; settings: recombinant enzyme
Experimental: (§5) The measurement of an activity on wild-type and EGFR mutation enzyme of the compound of the present invention was experimented by utilizing the HTRF system sold by Cisbio, as follow.
(§6) The composition of the assay buffer used in the activity measurement was 50 mM Tris-HCl pH 7.5, 100 mM NaCl, 7.5 mM MgCl2, 3 mM KCl, 0.01% Tween 20, 0.1% BSA, 1 mM DTT. The enzymatic reaction was carried out hereto by using the peptide substrate labeled with ATP of […] concentration and biotin of […] concentration. The analysis of an EGFR activity inhibitory effect of the compound was carried out in accordance with the analysis reaction recipe below.
(§7) Component 1: […] of EGFR wild-type or mutation enzyme
(§8) Component 2: […] of compound solution
(§9) Component 3: […] of peptide labeled with ATP and biotin
(§10) The enzymatic reaction was initiated by mixing Component 1 and Component 2 first, and then, adding component 3. After the reaction for 2 hours at 37° C., […] of a measurement solution consisting of streptavidin-XL665 provided by Cisbio and anti-phosphotyrosine antibody labeled with europium was added to the enzymatic reaction solution and reacted for 1 hour at ambient temperature. […] The measurement values measured at the seven concentrations of the compound were analyzed by using the Prism program (version 5.01, Graphpad Software, Inc.), and IC50 value of the compound was calculated, which is an inhibitory ability indicator.

EGFR del19 = EGFR del19 (Homo sapiens (Human), UniProt P00533, DEL746-750); assay: HTRF enzyme assay, EGFR del19; format: biochemical; settings: recombinant enzyme
Experimental: as §5, §6, §7, §8, §9, §10

EGFR del19/T790M = EGFR del19/T790M (Homo sapiens (Human), UniProt P00533, DEL746-750/T790M); assay: HTRF enzyme assay, EGFR del19/T790M; format: biochemical; settings: recombinant enzyme
Experimental: as §5, §6, §7, §8, §9, §10

EGFR del19/T790M/C797S = EGFR del19/T790M/C797S (Homo sapiens, UniProt P00533, C797S/DEL746-750/T790M); assay: HTRF enzyme assay, EGFR del19/T790M/C797S; format: biochemical
Experimental: as §5, §6, §7, §8, §9, §10

[3] = test system: Ba/F3 EGFR del19/T790M/C797S cell line; assay: CellTiter-Glo cell viability, Ba/F3 EGFR del19/T790M/C797S; format: cell-based; settings: read-out: Ba/F3 EGFR del19/T790M/C797S IC50
Experimental: as §1, §2, §4

[4] = HTRF, recombinant enzyme, read-out: EGFR del19/T790M/C797S IC50

EGFR del19/T790M/C797S, sequence (P00533 with tags, fused parts or gaps C797S/DEL746-750/T790M limits assumed): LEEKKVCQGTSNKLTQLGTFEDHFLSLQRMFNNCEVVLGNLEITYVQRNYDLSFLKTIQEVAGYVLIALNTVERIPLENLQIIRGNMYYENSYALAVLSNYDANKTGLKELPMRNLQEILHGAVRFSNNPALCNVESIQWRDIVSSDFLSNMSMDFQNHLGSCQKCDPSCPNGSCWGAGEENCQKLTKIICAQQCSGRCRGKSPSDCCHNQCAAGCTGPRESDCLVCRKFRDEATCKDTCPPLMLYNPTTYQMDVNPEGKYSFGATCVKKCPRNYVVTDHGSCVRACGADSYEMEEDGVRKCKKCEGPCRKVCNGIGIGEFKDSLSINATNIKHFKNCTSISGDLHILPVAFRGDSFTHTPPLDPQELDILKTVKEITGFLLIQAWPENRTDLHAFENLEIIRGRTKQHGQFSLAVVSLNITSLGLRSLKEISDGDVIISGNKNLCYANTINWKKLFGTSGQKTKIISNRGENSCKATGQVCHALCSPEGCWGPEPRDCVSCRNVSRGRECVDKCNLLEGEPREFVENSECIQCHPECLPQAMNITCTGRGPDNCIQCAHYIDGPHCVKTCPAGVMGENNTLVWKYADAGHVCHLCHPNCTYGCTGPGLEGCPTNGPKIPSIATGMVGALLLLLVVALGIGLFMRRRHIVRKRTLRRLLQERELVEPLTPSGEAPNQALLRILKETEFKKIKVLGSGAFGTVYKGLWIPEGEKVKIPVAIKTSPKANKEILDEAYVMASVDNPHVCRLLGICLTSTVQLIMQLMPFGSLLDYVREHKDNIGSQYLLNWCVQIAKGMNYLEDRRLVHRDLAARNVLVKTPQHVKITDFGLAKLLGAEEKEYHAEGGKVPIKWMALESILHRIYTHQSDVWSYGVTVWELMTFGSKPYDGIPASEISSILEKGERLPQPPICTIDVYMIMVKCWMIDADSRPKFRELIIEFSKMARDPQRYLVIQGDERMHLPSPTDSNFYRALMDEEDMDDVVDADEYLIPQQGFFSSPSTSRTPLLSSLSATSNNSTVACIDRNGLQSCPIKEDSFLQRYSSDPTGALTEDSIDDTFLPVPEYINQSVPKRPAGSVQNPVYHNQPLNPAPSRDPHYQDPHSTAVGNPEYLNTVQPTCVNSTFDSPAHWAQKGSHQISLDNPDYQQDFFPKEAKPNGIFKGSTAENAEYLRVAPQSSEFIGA
EGFR del19/T790M, sequence (P00533 other isoform, or with tags, fused parts or gaps T790M/del 1-668/del 746-750 limits assumed): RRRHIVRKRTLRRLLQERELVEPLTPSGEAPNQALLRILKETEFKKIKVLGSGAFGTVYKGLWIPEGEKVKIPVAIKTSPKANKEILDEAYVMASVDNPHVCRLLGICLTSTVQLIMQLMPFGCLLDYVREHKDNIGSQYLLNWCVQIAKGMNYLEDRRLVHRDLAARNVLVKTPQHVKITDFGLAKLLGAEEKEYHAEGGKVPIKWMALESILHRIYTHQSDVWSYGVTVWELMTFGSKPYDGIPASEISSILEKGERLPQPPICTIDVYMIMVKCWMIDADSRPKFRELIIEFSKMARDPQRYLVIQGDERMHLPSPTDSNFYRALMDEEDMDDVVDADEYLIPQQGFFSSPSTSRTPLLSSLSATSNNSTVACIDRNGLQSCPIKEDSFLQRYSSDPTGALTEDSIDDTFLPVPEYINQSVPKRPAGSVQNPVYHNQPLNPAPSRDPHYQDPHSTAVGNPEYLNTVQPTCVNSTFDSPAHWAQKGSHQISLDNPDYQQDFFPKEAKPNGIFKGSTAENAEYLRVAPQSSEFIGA
EGFR del19, sequence (P00533 other isoform, or with tags, fused parts or gaps del 1-668/del 746-750 limits assumed): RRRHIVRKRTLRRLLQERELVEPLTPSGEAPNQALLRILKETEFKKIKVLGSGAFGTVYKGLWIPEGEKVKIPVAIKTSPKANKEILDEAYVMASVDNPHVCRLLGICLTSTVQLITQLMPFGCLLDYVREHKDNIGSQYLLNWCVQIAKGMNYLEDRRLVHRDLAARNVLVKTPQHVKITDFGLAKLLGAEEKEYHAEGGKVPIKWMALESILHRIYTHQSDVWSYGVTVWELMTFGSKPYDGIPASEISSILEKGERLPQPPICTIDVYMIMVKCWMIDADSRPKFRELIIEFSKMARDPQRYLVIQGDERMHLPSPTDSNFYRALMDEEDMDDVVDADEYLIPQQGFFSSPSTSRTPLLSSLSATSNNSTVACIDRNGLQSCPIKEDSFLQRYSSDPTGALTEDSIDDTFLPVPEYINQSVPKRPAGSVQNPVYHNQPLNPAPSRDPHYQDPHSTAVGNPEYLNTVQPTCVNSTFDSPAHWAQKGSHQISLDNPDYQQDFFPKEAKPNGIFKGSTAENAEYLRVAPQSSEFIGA
EGFR wt., sequence (P00533 25-1210): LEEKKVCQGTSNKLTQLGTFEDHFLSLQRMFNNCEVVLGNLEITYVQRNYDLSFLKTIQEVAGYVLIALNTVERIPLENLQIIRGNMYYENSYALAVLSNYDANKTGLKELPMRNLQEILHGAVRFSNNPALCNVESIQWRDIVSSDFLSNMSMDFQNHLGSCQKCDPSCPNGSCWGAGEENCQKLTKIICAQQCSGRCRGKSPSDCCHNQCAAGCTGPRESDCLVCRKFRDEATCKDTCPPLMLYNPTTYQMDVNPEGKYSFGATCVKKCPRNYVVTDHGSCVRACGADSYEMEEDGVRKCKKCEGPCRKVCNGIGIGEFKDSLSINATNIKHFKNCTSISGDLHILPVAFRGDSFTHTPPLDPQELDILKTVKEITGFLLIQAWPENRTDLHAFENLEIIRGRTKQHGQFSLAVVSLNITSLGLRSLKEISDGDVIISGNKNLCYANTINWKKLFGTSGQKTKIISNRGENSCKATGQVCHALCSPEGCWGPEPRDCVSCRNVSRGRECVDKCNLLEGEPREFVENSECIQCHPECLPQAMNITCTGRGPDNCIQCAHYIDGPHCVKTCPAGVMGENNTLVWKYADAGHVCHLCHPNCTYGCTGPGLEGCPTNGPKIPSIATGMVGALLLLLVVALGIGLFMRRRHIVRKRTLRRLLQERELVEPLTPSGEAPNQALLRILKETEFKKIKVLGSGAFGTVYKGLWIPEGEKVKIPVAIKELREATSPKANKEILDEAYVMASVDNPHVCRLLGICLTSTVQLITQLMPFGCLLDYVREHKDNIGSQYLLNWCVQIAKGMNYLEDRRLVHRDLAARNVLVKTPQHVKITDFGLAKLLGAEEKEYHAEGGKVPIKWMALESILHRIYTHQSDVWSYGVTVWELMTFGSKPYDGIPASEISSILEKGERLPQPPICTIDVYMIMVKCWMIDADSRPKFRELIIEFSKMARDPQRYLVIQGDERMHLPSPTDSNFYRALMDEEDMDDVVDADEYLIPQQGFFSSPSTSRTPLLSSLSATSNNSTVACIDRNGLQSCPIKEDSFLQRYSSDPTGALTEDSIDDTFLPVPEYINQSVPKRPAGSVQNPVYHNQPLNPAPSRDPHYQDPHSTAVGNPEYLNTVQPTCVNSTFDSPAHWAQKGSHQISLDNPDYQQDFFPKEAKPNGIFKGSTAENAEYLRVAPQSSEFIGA

Structure (SMILES) | IC50 (Ba/F3 EGFR wt. cell line) [µM] | IC50 [1] [µM] | IC50 ([2]; CellTiter-Glo, 72 hours) [µM] | IC50 (EGFR wt.) [µM] | IC50 (EGFR del19) [µM] | IC50 (EGFR del19/T790M) [µM] | IC50 (EGFR del19/T790M/C797S; [4]) [µM] | IC50 ([3]; CellTiter-Glo, 72 hours) [µM] | IC50 (EGFR del19/T790M/C797S) [µM] | IC50 ([2]; 72 h) [µM] | IC50 ([3]; 72 h) [µM]
COc1cc(C2CCNCC2)ccc1Nc1ncc(Cl)c(Nc2ccccc2NS(C)(=O)=O)n1 [Example 1, N-(2-((5-chloro-2-((2-methoxy-4-(piperidin-4-yl)phenyl)amino)pyrimidin-4-yl)amino)phenyl)methanesulfonamide] | > 15 | 6.6 | 7.1 |  |  |  |  |  |  |  | 
COc1cc(C2CCNCC2)c(C)cc1Nc1ncc(Cl)c(Nc2ccccc2NS(C)(=O)=O)n1 [Example 2, N-(2-((5-chloro-2-((2-methoxy-5-methyl-4-(piperidin-4-yl)phenyl)amino)pyrimidin-4-yl)amino)phenyl)methanesulfonamide] | 2.8 | 3.8 | 1.8 | 0.73 | 0.012 | 0.012 | 0.003 | 2.4 |  |  | 
COc1cc(C2CCNCC2)ccc1Nc1ncc(Br)c(Nc2ccccc2NS(C)(=O)=O)n1 [Example 3, N-(2-((5-bromo-2-((2-methoxy-4-(piperidin-4-yl)phenyl)amino)pyrimidin-4-yl)amino)phenyl)methanesulfonamide] | 4.1 | 1 | 1.2 | 0.84 | 0.018 | 0.005 | 0.002 | 1.6 |  |  | 
COc1cc(C2CCNCC2)ccc1Nc1ncc(C(F)(F)F)c(Nc2ccccc2NS(C)(=O)=O)n1 [Example 5, N-(2-((2-((2-methoxy-4-(piperidin-4-yl)phenyl)amino)-5-(trifluoromethyl)pyrimidin-4-yl)amino)phenyl)methanesulfonamide] | 2.4 | 0.26 | 0.57 | 4.3 | 0.033 | 0.013 | 0.014 | 0.79 |  |  | 
COc1cc(C2CCNCC2)ccc1Nc1ncc(Cl)c(Nc2ccccc2NS(N)(=O)=O)n1 [Example 6, 4-(4-((5-chloro-4-((2-(sulfamoylamino)phenyl)amino)pyrimidin-2-yl)amino)-3-methoxyphenyl)piperidine] | > 15 | 6.4 | 9 | 0.39 | 0.026 | 0.01 | 0.011 | 5.8 |  |  | 
COc1cc(C2CCNCC2)ccc1Nc1ncc(Br)c(Nc2ccccc2NS(N)(=O)=O)n1 [Example 7, 4-(4-((5-bromo-4-((2-(sulfamoylamino)phenyl)amino)pyrimidin-2-yl)amino)-3-methoxyphenyl)piperidine] | 3.4 | 0.47 | 1.6 | > 10 | 0.079 | 0.038 | 0.002 | 3.3 |  |  | 
COc1cc(C2CCN(C)CC2)ccc1Nc1ncc(Cl)c(Nc2ccccc2NS(C)(=O)=O)n1 [Example 12, N-(2-((5-chloro-2-((2-methoxy-4-(1-methylpiperidin-4-yl)phenyl)amino)pyrimidin-4-yl)amino)phenyl)methanesulfonamide] | 0.32 | 0.33 | 0.38 | 1.2 | 0.022 | 0.13 | 0.002 | 0.08 |  |  | 
COc1cc(C2CCN(CCO)CC2)ccc1Nc1ncc(Cl)c(Nc2ccccc2NS(C)(=O)=O)n1 [Example 13, N-(2-((5-chloro-2-((4-(1-(2-hydroxyethyl)piperidin-4-yl)-2-methoxyphenyl)amino)pyrimidin-4-yl)amino)phenyl)methanesulfonamide] | 4.4 | 0.98 | 0.65 | 1.9 | 0.013 | 0.25 | 0.033 | 1.5 |  |  | 
COc1cc(N2CCC(N3CCN(CCO)CC3)CC2)ccc1Nc1ncc(Cl)c(Nc2ccccc2NS(C)(=O)=O)n1 [Example 22, N-(2-((5-chloro-2-((4-(4-(4-(2-hydroxyethyl)piperazin-1-yl)piperidin-1-yl)-2-methoxyphenyl)amino)pyrimidin-4-yl)amino)phenyl)methanesulfonamide] |  | 0.9 |  | 0.26 | 0.0004 | 0.031 |  |  | 0.0008 | 0.39 | 1.3
COc1cc(N2CCNCC2)ccc1Nc1ncc(Cl)c(Nc2ccccc2NS(C)(=O)=O)n1 [Example 23, N-(2-((5-chloro-2-((2-methoxy-4-(piperazin-1-yl)phenyl)amino)pyrimidin-4-yl)amino)phenyl)methanesulfonamide] |  |  |  | 2.7 | 0.025 | 0.032 | 0.029 |  |  |  | 
COc1cc(N2CCN(C3CCNCC3)CC2)ccc1Nc1ncc(Cl)c(Nc2ccccc2NS(C)(=O)=O)n1 [Example 27, N-(2-((5-chloro-2-((2-methoxy-4-(4-(piperidin-4-yl)piperazin-1-yl)phenyl)amino)pyrimidin-4-yl)amino)phenyl)methanesulfonamide] |  | 1.1 | 0.94 | 0.28 | 0.0003 | 0.021 | 0.001 | > 10 |  |  | 
COc1cc(N2CCNCC2)ccc1Nc1ncc(C(F)(F)F)c(Nc2ccccc2NS(C)(=O)=O)n1 [Example 31, N-(2-((2-((2-methoxy-4-(piperazin-4-yl)phenyl)amino)-5-(trifluoromethyl)pyrimidin-4-yl)amino)phenyl)methanesulfonamide] |  |  |  | 0.58 | 0.036 | 0.029 | 0.007 |  |  |  | 
COc1cc(N2CCC(N3C[C@@H](C)N[C@@H](C)C3)CC2)ccc1Nc1ncc(Cl)c(Nc2ccccc2NS(C)(=O)=O)n1 [Example 33, N-(2-((5-chloro-2-((4-(4-((3R,5S)-3,5-dimethylpiperazin-1-yl)piperidin-1-yl)-2-methoxyphenyl)amino)pyrimidin-4-yl)amino)phenyl)methanesulfonamide] |  |  |  |  |  |  | < 0.001 | 0.12 |  |  | 
COc1cc(N2CCC(N3CCOCC3)CC2)ccc1Nc1ncc(Cl)c(Nc2ccccc2NS(C)(=O)=O)n1 [Example 34, N-(2-((5-chloro-2-((2-methoxy-4-(4-morpholinopiperidin-1-yl)phenyl)amino)pyrimidin-4-yl)amino)phenyl)methanesulfonamide] |  |  |  |  |  |  | < 0.001 | 0.16 |  |  | 
COc1cc(N2CCC(N3CCCC3)CC2)ccc1Nc1ncc(Cl)c(Nc2ccccc2NS(C)(=O)=O)n1 [Example 35, N-(2-((5-chloro-2-((2-methoxy-4-(4-(pyrrolidin-1-yl)piperidin-1-yl)phenyl)amino)pyrimidin-4-yl)amino)phenyl)methanesulfonamide] |  |  |  | 0.027 | 0.0011 | 0.0083 | < 0.001 | 0.084 |  |  | 
COc1cc(N2CCC(N(C)C)CC2)ccc1Nc1ncc(Cl)c(Nc2ccccc2NS(N)(=O)=O)n1 [Example 36] |  |  |  |  |  |  |  | 0.93 |  |  | 
COc1cc(N2CCC(N)CC2)ccc1Nc1ncc(Cl)c(Nc2ccccc2NS(C)(=O)=O)n1 [Example 38, N-(2-((2-((4-(4-aminopiperidin-1-yl)-2-methoxyphenyl)amino)-5-chloropyrimidin-4-yl)amino)phenyl)methanesulfonamide] |  |  |  |  |  |  |  | 0.84 |  |  | 
CNC1CCN(c2ccc(Nc3ncc(Cl)c(Nc4ccccc4NS(C)(=O)=O)n3)c(OC)c2)CC1 [Example 40, N-(2-((5-chloro-2-((2-methoxy-4-(4-(methylamino)piperidin-1-yl)phenyl)amino)pyrimidin-4-yl)amino)phenyl)methanesulfonamide] |  |  |  |  |  |  |  | 0.5 |  |  | 
